Measurements taken from US7193044B1, “Compounds and methods for regulating apoptosis, and methods of making and screening for compounds that regulate apoptosis” (Immunogen, Inc., priority 2000, dated 2007).
“Also recorded” adds a separate entry of the source. Residues, ends and D or L forms follow the SMILES beside them. *: point of attachment. Cbz = O=C(OCc1ccccc1)*; CH2F = FC*

How the values were obtained:
[1] = system: BAD Ser155 phosphorylation in HeLa cells; experiment: BAD phosphorylation in HeLa cells (western blot band-shift / anti-phospho-Ser155 antibody); type: cell-based, human
Protocol: A mammalian expression vector encoding mutant HA-BAD S155A, derived from the shorter murine BAD of SEQ ID NO:3, was constructed. HA-BAD S155A has an amino acid sequence wherein the serine at a position corresponding to Ser155 is substituted with alanine. A western blot was performed on WCL prepared from cells expressing the shorter murine BAD (SEQ ID NO:3), HA-BAD S112A, HA-BAD S136A, or HA-BAD S155A, and probed with anti-HA antibody.
A western blot analysis, probed with anti-HA antibody, was performed on lysates produced from the Forskolin treated and untreated (control) cells to determine whether Forskolin could induce the phosphorylation BAD or mutant BAD.
HeLa cells transiently expressing HA-BAD, HA-BAD S155A, HA-BAD S112A/S136A, or HA-BAD S112A/S136A/S155A were treated with Forskolin or a buffer control.
The HA-BAD S112A/S136A double mutant was transiently expressed in HeLa cells, and transfected cell cultures were treated with each of the GPCR ligands, individually and as a group. A western blot analysis, probed with anti-HA antibody, was performed on lysates produced from the treated and untreated (negative control) cells. […] Forskolin (FK) and no treatment (−) were positive and negative controls, respectively (FIG. 6(a), […], respectively).
Non-transfected HeLa cells were treated with Forskolin or L-epinephrine, followed by western blot analysis of cell lysates using anti-BAD antibodies.
Transformants were treated with L-epinephrine, then lysed and subjected to anti-HA western blot analysis.
(§1) To further test whether phosphorylation of Ser155 is dependent on the PI 3-kinase/Akt pathway, HeLa cells were transfected with the mutant HA-BAD S155A and pretreated with Wortmannin, an inhibitor of PI 3-kinase. These cells were then stimulated with epidermal growth factor (EGF), lysed and analyzed by western blot analysis.
For immunoprecipitation of all HA-BAD species, 1 μg of the anti-HA antibody was added to the cell lysates, and incubated at 4° C. for one hour. Protein G agarose (Pierce) was then added (50 μl/fraction of 50% slurry) and followed by a one hour incubation at 4° C. Beads were washed with RIPA buffer, boiled in loading buffer (2% SDS, 10% glycerol, 5% β-ME, 60 mM Tris, pH 6.8, 0.002% Bromophenol Blue) and loaded onto polyacrylamide gels. After electrophoresis, proteins were transferred to nitrocellulose membranes, and blots blocked in western wash buffer (40 mM Tris, pH 8.0, 150 mM NaCl, 0.2% NP-40) with 5% BSA for one hour at room temperature. Blots were incubated with primary antibody diluted in western wash buffer with 3% BSA at room temperature for 1–2 hours, washed with western wash buffer and incubated with secondary HRP-coupled antibody diluted in western wash buffer with 1.5% BSA, and washed extensively. Polypeptides were detected with the ECL chemiluminescence according to the manufacturers instructions (Amersham).

[2] = system: Akt; experiment: Akt activation in HeLa cells (anti-phospho-S473 Akt western blot); type: cell-based, human; settings: serum-starved HeLa cells, pretreatment then EGF
Excerpt: FIG. 10(B) is a series of western blots. Serum-starved HeLa cells expressing HA-BAD S155A, were pretreated with a buffer control (lanes 1 and 2), AG1478 (“AG”) (lane 3), Wortmannin (“Wm”) (lane 4), or H89 (lane 5). The cell cultures were then stimulated with a buffer control (lane 1) or EGF (lanes 2–5). Whole cell lysates were made from the cultures and the proteins were separated by SDS-PAGE. Blots were probed with either an anti-activated EGF receptor antibody (“activated EGFR”) (panel A), an anti-phospho-S473 Akt antibody (“pS473 Akt”) (panel B), or an anti-phospho-S155 BAD antibody (“pS155 BAD”) (panel D). Reblots were probed with either an anti-Akt antibody (“Akt”) (panel C) or an anti-HA BAD antibody (“HA-BAD”) (panel E).
as §1

[3] = system: Akt; experiment: Akt activation in Rat-1 cells (anti-phospho-S473 Akt western blot); type: cell-based; settings: pretreatment then PDGF
Protocol: FIG. 9(B) is two western blots. Rat-1 cells transiently expressing HA-BAD S112A/S136A were treated with a buffer control, H89 (PKA inhibitor) or Wortmannin (PI 3-kinase inhibitor), prior to stimulation with Forskolin or platelet-derived growth factor (“PDGF”). Whole cell lysates were then prepared and proteins were separated by SDS-PAGE. Blots were separately probed with an anti-phospho-S473 Akt antibody (the kinase that phosphorylates Ser136) (upper panel) and an anti-BAD antibody (lower panel).
(§2) It has been documented that Akt kinase activity, the serine kinase shown to phosphorylate BAD Ser136, is induced by growth factors and is dependent on PI 3-kinase activation (Datta et al., 1997; del Peso et al., 1997). In related experiments, Rat-1 cells were pretreated with either the PKA inhibitor H89, or the PI 3-kinase inhibitor Wortmannin (available, e.g., from Sigma, St. Louis, Mo.), followed by stimulation with Forskolin (also available from Sigma) or PDGF. […] This indicated the shift was PKA dependent (FIG. 9(b), lower panel, compare lanes 5 and 6). […] It therefore presumably had no effect on PDGF-induced activation of PI 3-kinase.

[4] = system: BAD phosphorylation in Rat-1 cells; experiment: BAD phosphorylation in Rat-1 cells (western blot band-shift / anti-phospho-Ser155 antibody); type: cell-based
Excerpt: In the absence of a phospho-Ser155 antibody, it was difficult to conclude that this band-shift was solely the result of the phosphorylation of Ser155. However, it appeared that this response was at least primarily due to the phosphorylation at this site. This was based on the combined evidence, both in vitro and in cells, as described above (FIGS. 1, 2 and 4–7) and the fact that Ser155 is the only site of BAD homologous to the substrate consensus sequence of PKA.
Whether the BAD Ser155 kinase, PKA, is also activated by growth factors, and if so, whether such activation is PI 3-kinase dependent, was investigated. […] Cell lysates were analyzed via western blot analysis, probed using anti-HA antibody. […] However, the magnitude of phosphorylation was weaker and may be more transient, than the effect of Forskolin (FIG. 9(a)). Of note, Ser155 phosphorylation following IGF-1, EGF, or PDGF stimulation was not detected in HeLa cells (results not shown).
as §2
To examine whether endogenous BAD is phosphorylated on Ser155 in response to growth factors, serum-starved Rat-1 fibroblasts were stimulated with PDGF. Whole cell lysates were prepared and endogenous BAD was immunoprecipitated. Proteins were separated by SDS-PAGE, and Ser155 phosphorylation was analyzed by Western blot using the phospho-S155 antibody and an anti-BAD antibody.

[5] = system: HeLa cells; experiment: Fluorescence-based beta-galactosidase assay of BAD-induced cell death in transfected HeLa cells; set-up: species or system human
Protocol: FIG. 12(B) is a graphic representation of the results of a β-galactosidase assay. HeLa cells were co-transfected with the β-galactosidase gene and either HA-BAD (“WT”), HA-BAD S155A (“S155A”), HA-BAD S112A/S136A (“S112A/S136A”) or HA-BAD S112A/S136A/S155A (“AAA”). Transfected cells were then cultured in serum-free medium (SFM) or SFM supplemented with EGF (SFM+EGF) for 12 hours. Cell lysates were prepared and BAD-induced cell death was measured by the loss of β-galactosidase activity in a fluorescence-based assay. Fluorescence was measured at 465 nm. Results shown are the average and standard deviation of triplicate transfections (this experiment was repeated two more times with similar results). Expression levels of HA-tagged BAD and BAD mutants in transfected cell lysates were detected by anti-HA western blot analysis: HA-BAD (“WT”), HA-BAD S155A (“A”), HA-BAD S112A/S136A (“AA”), and HA-BAD S112A/S136A/S155A (“AAA”).
FIG. 12(C) is a graphic representation of the results of a β-galactosidase assay. HeLa cells were co-transfected with the β-galactosidase gene and either an empty vector (“CTL”), wild-type BAD (“WT”), the BAD S155A mutant (“S155A”) or the BAD S155D mutant (“S155D”). Cell lysates were prepared and BAD-induced cell death was measured by the loss of β-galactosidase activity in a fluorescence-based assay. Fluorescence was measured at 465 nm. […]

[6] = system: HeLa cells; experiment: Beta-gal ELISA apoptosis assay in transfected HeLa cells; type: cell-based, human; settings: transfected cells, data not shown
Protocol: Because BAD Ser155 phosphorylation, like Ser136 phosphorylation, prevents BAD from binding to Bcl-XL (FIG. 1), it was possible that by analogy, Ser155 dephosphorylation promotes cell death. To test this idea, HeLa cells were co-transfected with BAD or various BAD serine mutants and a β-gal reporter plasmid. Twenty-four hours post-transfection, cell viability was analyzed by β-gal ELISA.
To test this idea, HeLa cells were again co-transfected with BAD or various BAD serine mutants and a β-gal reporter plasmid. Forskolin was then added to half of the cultures while the other half was left untreated. Beta-gal ELISAs were performed 24 hours post transfection. […] Thus, phosphorylation of Ser155 rescues cells from BAD-induced apoptosis, while substitution of Ser155 with a nonphosphorylatable residue results in increased cell death and the failure of cells to be protected from induced PKA activity.
Beta-gal ELISA assays were performed using the β-gal ELISA system from Boehringer Mannheim, according to manufacture's instructions. Cells were transfected with BAD (or BAD mutant) and β-gal in a ratio of 5:1. The transfected cells were trypsinized and distributed into 96-well tissue culture plates. […] The β-gal activity was measured by the absorbance of the sample at […]. Data were based on triplicate wells with standard deviations calculated.

O=S(=O)(NCCNC/C=C/c1ccc(Br)cc1)c1cccc2cnccc12 [H89, reference compound]
inhibition of L-epinephrine-induced band-shift of endogenous BAD ([1]; HeLa cells): band-shift was sensitive to the PKA inhibitor, H89; also recorded: blocked L-epinephrine-induced BAD phosphorylation
basal phosphorylation of endogenous BAD ([1]; HeLa cells, treatment for one hour): reduced basal phosphorylation of endogenous BAD
inhibition of EGF-induced phosphorylation of BAD on Ser155 ([1]; serum-starved HeLa cells transfected with HA-BAD S155A (so in the source), pretreatment then EGF, anti-phospho-S155 blot): BAD Ser155 phosphorylation was prevented
inhibition of L-epinephrine-induced Ser155 phosphorylation of HA-BAD S112A/S136A ([1]; transfected HeLa cells): inhibitory effect of H89
effect on EGF-induced activation/phosphorylation of endogenous Akt [2]: without affecting the phosphorylation of Akt
effect on PDGF-induced Akt activation [3]: no effect on PDGF-induced Akt activation
inhibition of Forskolin-induced BAD band-shift ([4]; Rat-1 cells): sensitive to the PKA inhibitor H89
inhibition of PDGF-induced BAD band-shift/phosphorylation ([4]; Rat-1 cells, pretreatment then PDGF): significantly reduced
inhibition of PDGF-induced Ser155 phosphorylation of endogenous BAD ([4]; serum-starved Rat-1 cells, pretreatment): significantly reduced

CC(NC(=O)C(NC(=O)OCc1ccccc1)C(C)C)C(=O)NC(CC(=O)O)C(=O)CF (stereo not drawn) [z-VAD, reference compound] (Cbz-Val-Ala-Asp-CH2F; configuration not given here)
reversal of BAD-induced reduction of beta-gal activity [5]: reversed
protection from BAD-induced apoptosis [6]: efficiently protected the cells

EGF: epidermal growth factor
Ser155 phosphorylation following growth factor stimulation ([1]; HeLa cells, results not shown): not detected
induction of Ser155 phosphorylation of HA-BAD S112A/S136 ([1]; serum-starved transfected HeLa cells): stimulated the phosphorylation of BAD on Ser155
suppression of pro-apoptotic function of BAD ([5]; serum-free medium plus EGF for 12 hours): suppressed the pro-apoptotic function of BAD
induction of band-shift of HA-BAD S112A/S136A ([4]; transfected Rat-1 fibroblasts): induced a band-shift
